Source: patent publication US5872124A, “Treatment of diseases of the central nervous system using uric acid as a scavenger of peroxynitrite” (Thomas Jefferson University, priority 1996, dated 1999)

How the values were obtained:
Assay type in all cases: in vivo
[1] = tested on: experimental allergic encephalomyelitis (EAE), MBP-specific T cell transfer; assay: Clinical severity of adoptive transfer EAE in Lewis rats
Source text: (§1) Induction of EAE in rats by adoptive transfer of MBP-specific T cells or in SJL or SWXJ-14 mice by immunization with MBP or PLP 139-151, a peptide derived from […] [8], results in variable disease. We have scored the clinical systems of EAE as tabulated below.
______________________________________
(§2) Severity scores and symptoms of Experimental Allergic
(§3) 1 piloerection, tail weakness
(§4) 3 hind limb weakness/paralysis
(§5) 4 hind and forelimb paralysis
(§6) In FIG. 1, EAE was elicited in 11 week old female Lewis rats by the adoptive transfer of 20×10^6 cells of the MBP-specific line 5HGBP.G5 activated by stimulation with MBP and syngeneic APC 48 hours previously and NO levels measured 5 days after transfer. In SWXJ-14 mice, EAE was triggered by two subcutaneous immunizations (d.0 and 7) with 100 μg PLP in CFA over two injection sites, and NO levels measured 18 days later. Results expressed represent the mean values obtained from a minimum of 4 animals. Peak severity of the symptoms of EAE ranged from 2-3 for the rats and 4-5 for the mice. NO was semi-quantitated using spin trapping with DETC and EPR-spectroscopy as described previously.
(§7) Rats were injected i.v. with 20×10^6 MBP-specific CD4 T cells activated in vitro. Two days later the animals were treated with a single dose of either PTIO (20 mg) or a mixture of PTIO (20 mg), indomethacin (1 mg), and allopurinol (13 mg). Treatment was continued on a daily basis until day 4 and animals were sacrificed for NO measurement the following day.

nitric oxide (NO) [2] = assay: NO level in spinal cord of Lewis rats with adoptive transfer EAE (spin trapping, EPR)
Experimental: as §6, §7

[3] = tested on: experimental allergic encephalomyelitis (EAE), immunization-elicited; assay: Clinical severity of immunization-elicited EAE in SJL mice
Source text: as §1, §2, §3, §4, §5
(§8) SJL mice are immunized subcutaneously with pMBP in adjuvant to induce EAE, from which they often recover. Commencing ten days post-immunization, groups of mice (n=6) were treated once daily with 2 mg of either PTIO or carboxy-PTIO intraperitoneally and observed for clinical signs of EAE which were graded as detailed in Table 1. […] At 18 days […], NO determinations were performed in several mice from each group.

nitric oxide (NO) [4] = assay: NO levels in spinal cord and brain of SJL mice with EAE
Experimental: as §8

CC1(C)N([O])C(c2ccccc2)=[N+]([O-])C1(C)C [PTIO, 2-phenyl-4,4,5,5-tetramethylimidazoline-1-oxyl-3-oxide]
Symptoms of disease (FIG. 6) ([1]; PTIO 20 mg daily from day 2 to day 4 after T cell transfer, alone or in mix): little or no symptoms of disease | Clinical severity ([1]; Rat-adoptive transfer EAE, severity score 1-5, Table 2): 0.8 | Duration of alleviation of clinical symptoms between doses ([1]; animals subjected to stimuli that induce EAE (species not specified)): at least 24 hours | Clinical symptoms of EAE ([1]; rats, MBP-specific T cell transfer, i.p. administration): forestall the appearance of clinical symptoms of EAE | NO-spinal cord (nitric oxide (NO) [2]; Rat-adoptive transfer EAE, Table 2): undetectable | Levels of NO in spinal cord (nitric oxide (NO) [2]; rats, adoptive transfer EAE, i.p. administration): reduce levels of NO detected in spinal cord | Onset and severity of EAE (FIG. 7) ([3]; 2 mg once daily i.p. from day 10 post-immunization, n=6): delayed onset of disease and somewhat lessened severity by comparison with untreated animals | Clinical symptoms of EAE ([3]; SJL mice, i.p. administration): forestall the appearance of clinical symptoms of EAE | Clinical severity ([3]; SJL mouse - immunization EAE, severity score 1-5, Table 2): 0.8 | NO levels in spinal cord (FIG. 8) (nitric oxide (NO) [4]; 2 mg once daily i.p., day 18): lower in the spinal cords | Levels of NO in spinal cord (nitric oxide (NO) [4]; SJL mice, i.p. administration): reduce levels of NO detected in spinal cord | NO-spinal cord (nitric oxide (NO) [4]; SJL mouse - immunization EAE, Table 2): 1.6 mM
